From patent US20230365592A1 (Agios Pharmaceuticals, Inc., priority 2022, published 2023)

Each molecule was assayed against T1, human PAH with the R408W mutation (Homo sapiens, UniProt P00439, R408W) (assay: Cell Based Phenylalanine Flux Assay). Conditions: A375 cells expressing R408W PAH; 24 hrs with compound, then 20 µM sepiapterin and 800 µM 13C9,15N-Phenylalanine for 4 hours; 13C-Tyrosine by LC-MS; average where tested multiple times; read-out: AC50.
T1 construct: expressed in transfected cells
T1 sequence (P00439 1-452 R408W): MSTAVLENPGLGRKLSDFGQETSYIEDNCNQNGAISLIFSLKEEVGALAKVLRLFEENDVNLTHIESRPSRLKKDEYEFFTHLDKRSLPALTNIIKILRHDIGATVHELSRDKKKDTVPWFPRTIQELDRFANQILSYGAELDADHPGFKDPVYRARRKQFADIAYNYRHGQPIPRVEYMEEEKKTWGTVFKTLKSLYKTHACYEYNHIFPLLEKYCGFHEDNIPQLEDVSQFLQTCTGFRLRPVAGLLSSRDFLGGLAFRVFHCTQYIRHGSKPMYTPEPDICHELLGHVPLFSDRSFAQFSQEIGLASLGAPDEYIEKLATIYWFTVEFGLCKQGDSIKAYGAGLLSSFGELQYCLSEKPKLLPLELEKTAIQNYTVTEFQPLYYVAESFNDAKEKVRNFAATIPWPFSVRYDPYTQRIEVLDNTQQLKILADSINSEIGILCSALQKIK
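Also: after compound treatment, cells received sepiapterin plus isotope-labelled Phenylalanine for 4 hours, then labelled Tyrosine in the medium was quantified, 10-point 2-fold dilution series run in duplicate.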
Method: Compounds were resuspended in DMSO, and 2-fold serial dilutions were performed to generate a 10-point dose curve. Compounds were added to plated cells in a total volume of 100 µl, and a final DMSO concentration of 0.5%. Each compound was tested in duplicate. Following compound addition, cells were placed in a 5% CO2, 37° C. tissue culture incubator for 24 hrs. After the incubation period, 20 µM sepiapterin and 800 µM 13C9,15N-Phenylalanine were added. After 4 hours, cell media was removed. An aliquot of 10 µl of cell media was combined with 200 µl of extraction buffer (80% acetonitrile/20% H2O) for each well. Determination of ^13C-Tyrosine concentration was assessed by liquid chromatography mass spectrometry.
Where a compound was tested multiple times, the average value of the tests is reported.

AC50, > 5 µM:
O=C(c1cnc(-c2ncccn2)o1)N1CCc2[nH]cnc2C1c1cc2c(C(F)F)cccn2n1 (stereo not shown)
O=C(c1cnc(-c2ncccn2)o1)N1CCc2[nH]cnc2C1c1cc2c(F)cccn2n1 (stereo not shown)
CC(C)(C)c1nnc(N2CCc3[nH]cnc3C2c2cc3c(F)cccn3n2)o1 (stereo not shown)
CC(C)(C)c1nnc(N2CCc3[nH]cnc3C2c2cc3cccc(C(F)F)n3n2)o1 (stereo not shown)
CC(C)(C)c1nnc(N2CCc3[nH]cnc3C2c2cc3cccc(C(F)(F)F)n3n2)o1 (stereo not shown)
CC(C)(C)c1nnc(N2CCc3[nH]cnc3C2c2cc3cccc(Cl)n3n2)o1 (stereo not shown)
Cc1cccn2nc(C3c4nc[nH]c4CCN3C(=O)C3CCC3)cc12 (stereo not shown)
O=C(C1CCC1)N1CCc2[nH]cnc2C1c1cc2ccccn2n1 (stereo not shown)
Nc1ccc(N2CCc3[nH]cnc3C2c2cc3ccccn3n2)nc1 (stereo not shown)

AC50, 1 to 5 µM:
FC(F)c1cccn2nc(C3c4nc[nH]c4CCN3c3nnc(-c4ncccn4)o3)cc12 (stereo not shown)
FC(F)c1cccn2nc(C3c4nc[nH]c4CCN3c3nnc(-c4cnccn4)o3)cc12 (stereo not shown)
O=C(c1cnc(-c2ncccn2)o1)N1CCc2[nH]cnc2C1c1cc2c(C(F)(F)F)cccn2n1 (stereo not shown)
c1cc(C2CC2)c2cc(C3c4nc[nH]c4CCN3c3nnc(-c4cnccn4)o3)nn2c1 (stereo not shown)
c1cnc(-c2nnc(N3CCc4[nH]cnc4C3c3cc4c(C5CC5)cccn4n3)o2)nc1 (stereo not shown)
Fc1cccn2nc(C3c4nc[nH]c4CCN3c3nnc(-c4ncccn4)o3)cc12 (stereo not shown)
Cc1cccn2nc(C3c4nc[nH]c4CCN3C(=O)c3cnc(-c4ncccn4)o3)cc12 (stereo not shown)
Clc1cccc2cc(C3c4nc[nH]c4CCN3c3nnc(-c4cnccn4)o3)nn12 (stereo not shown)
Cc1cccc2cc(C3c4nc[nH]c4CCN3c3nnc(-c4cnccn4)o3)nn12 (stereo not shown)
c1cnc(-c2nnc(N3CCc4[nH]cnc4C3c3cc4ccccn4n3)o2)nc1 (stereo not shown)
c1ccn2nc(C3c4nc[nH]c4CCN3c3nnc(-c4cnccn4)o3)cc2c1 (stereo not shown)
COCc1nnc(C(=O)N2CCc3[nH]cnc3C2c2cc3ccccn3n2)o1 (stereo not shown)
FC(F)c1cccc2cc(C3c4nc[nH]c4CCN3c3nnc(C4CCC4)o3)nn12 (stereo not shown)
FC(F)(F)c1cccc2cc(C3c4nc[nH]c4CCN3c3nnc(C4CCC4)o3)nn12 (stereo not shown)
Cc1ncccc1-c1nnc(N2CCc3[nH]cnc3C2c2cc3ccccn3n2)o1 (stereo not shown)
Cc1nnc(C(=O)N2CCc3[nH]cnc3C2c2cc3ccccn3n2)s1 (stereo not shown)
Cc1cccc2cc(C3c4nc[nH]c4CCN3c3nnc(C(C)(C)C)o3)nn12 (stereo not shown)
CC(C)(C)c1nnc(N2CCc3[nH]cnc3C2c2cc3ccccn3n2)o1 (stereo not shown)
CN(C)c1ccc2c(C(=O)N3CCc4[nH]cnc4C3c3cc4cccc(C(F)F)n4n3)cnn2c1 (stereo not shown)
FC(F)c1cccn2nc(C3c4nc[nH]c4CCN3c3nnc(-c4cccnn4)o3)cc12 (stereo not shown)
FC(F)(F)c1cccn2nc(C3c4nc[nH]c4CCN3c3nnc(-c4cccnn4)o3)cc12 (stereo not shown)
c1cnnc(-c2nnc(N3CCc4[nH]cnc4C3c3cc4c(C5CC5)cccn4n3)o2)c1 (stereo not shown)
Cc1cccn2nc(C3c4nc[nH]c4CCN3c3nnc(-c4cccnc4)o3)cc12 (stereo not shown)
Cc1cccn2nc(C3c4nc[nH]c4CCN3c3nnc(-c4cccnn4)o3)cc12 (stereo not shown)
c1cnnc(-c2nnc(N3CCc4[nH]cnc4C3c3cc4ccccn4n3)o2)c1 (stereo not shown)
c1cncc(-c2nnc(N3CCc4[nH]cnc4C3c3cc4ccccn4n3)o2)c1 (stereo not shown)
Cn1nc(C(F)F)cc1C(=O)N1CCc2[nH]cnc2C1c1cc2ccccn2n1 (stereo not shown)
Cn1cc(N2CCc3[nH]cnc3C2c2cc3c(F)cccn3n2)cn1 (stereo not shown)
Cc1cccn2nc(C3c4nc[nH]c4CCN3c3nnc(-c4ccncn4)o3)cc12 (stereo not shown)
c1ccn2nc(C3c4nc[nH]c4CCN3c3nnc(-c4ccncn4)o3)cc2c1 (stereo not shown)
Cn1cc(-c2nc(C3CC3)c(C(=O)N3CCc4[nH]cnc4C3c3cc4ccccn4n3)o2)cn1 (stereo not shown)
O=C(c1ocnc1C1CC1)N1CCc2[nH]cnc2C1c1cc2cccc(C(F)(F)F)n2n1 (stereo not shown)
Cn1ccc(-c2ncc(C(=O)N3CCc4[nH]cnc4C3c3cc4c(C(F)F)cccn4n3)o2)n1 (stereo not shown)
Cn1cc(-c2ncc(C(=O)N3CCc4[nH]cnc4C3c3cc4c(C(F)F)cccn4n3)o2)cn1 (stereo not shown)
Cn1cc(-c2ncc(C(=O)N3CCc4[nH]cnc4C3c3cc4c(F)cccn4n3)o2)cn1 (stereo not shown)
Nc1ccc(N2CCc3[nH]cnc3C2c2cc3c(C(F)F)cccn3n2)nc1 (stereo not shown)
CN(C)CCc1ccc2c(C(=O)N3CCc4[nH]cnc4C3c3cc4cccc(C(F)(F)F)n4n3)cnn2c1 (stereo not shown)
